Source: patent publication US6909023B2, “Production method for benzenedimethanol compound” (Showa Denko K.K., priority 2000, dated 2005)

Experiment: solubility in water at room temperature

With `OCc1c(F)c(F)c(CO)c(F)c1F` [2,3,5,6-tetrafluorobenzenedimethanol] the solubility in water was “about 25 g/L”.
